Values quoted from earlier work in patent publication US6534508B2, “Methods and compositions for treating infection using optically pure (S)-lomefloxacin” (priority 1991, dated 2003).
In brackets after ≈: the same amount, converted by molar mass.

System: M. tuberculosis
Details: 11 strains resistant to conventional drug therapy; cited from earlier work

In the case of `CCn1cc(C(=O)O)c(=O)c2cc(F)c(N3CCNC(C)C3)c(F)c21` (racemic) [LM, 1-ethyl-6,8-difluoro-1,4-dihydro-7-(3-methyl-lpiperazinyl)-4-oxo-3-quinolinecarboxylic acid], the MIC50 is listed as 1.0 µg/mL (≈ 2.85 µM) and the MIC90 is listed as 1.1 µg/mL (≈ 3.13 µM).
